According to patent US20240246951A1, “COMPOUND HAVING BIOLOGICAL ACTIVITY SUCH AS ANTIVIRAL ACTIVITY” (NATIONAL CENTER FOR GLOBAL HEALTH AND MEDICINE, priority 2021, published 2024):
Read-outs that look alike come from different tables or passages of the source.

Assays:
[1] = tested on: Vero E6 cells; assay: Cytotoxicity test, MTT assay; assay type: cell-based; conditions: 3 days
Experimental: (§1) The cytotoxicity test of the test compounds was conducted using Vero E6 cells. Specifically, Vero E6 cells were inoculated in a 96 well plate to be 1×10^4 cells/well, and cultured under standard culture conditions of 3 days, 37° C., and 5% CO2 together with media supplemented with each test compound of each concentration after serial dilution. Thereafter, the viable cell count of each well was quantified by MTT assay to calculate 50% cytotoxicity concentration (CC50).

[2] = tested on: SARS-CoV-2WK-521; assay: microbe, parasite or virus in culture; assay type: cell-based; conditions: for times more excellent EC50 value as compared with PF-7321332: ratio of EC50 values; for times more excellent EC99 value as compared with PF-7321332: ratio of EC99 values
[3] = Cytotoxicity test, MTT assay; assay type: cell-based; conditions: African green monkey, Vero E6 cells
Experimental: as §1

[4] = biological target: Mpro/3CL protease of SARS-CoV-2 (Severe acute respiratory syndrome coronavirus 2 (2019-nCoV) (SARS-CoV-2), UniProt P0DTD1); assay: Mpro/3CL protease enzyme inhibitory activity, FRET assay kit; assay type: biochemical; conditions: fluorogenic substrate, 25° C.
[5] = in vivo; conditions: mouse, 2 mg/kg; for half-life: iv; for bioavailability: po, bioavailability (BA)
[6] = Severe acute respiratory syndrome coronavirus 2, Vero C1008, 72 h, Vero E6 cells, MOI 0.05, 3 days, read-out: EC50
[7] = Vero E6 cells, MOI 0.05, 3 days
[8] = Severe acute respiratory syndrome coronavirus 2, Vero C1008, 72 h, read-out: EC50

Structure (SMILES) | CC50 [1] [nM] | EC99 [2] [µM] | EC50 ([2]; read-out: EC50) [nM] | CC50 at 3 days [3] [nM] | further results
CC1(C)[C@@H]2[C@@H](C(=S)N[C@@H](C[C@@H]3CCNC3=O)C(=O)c3nc4c(F)cccc4s3)N(C(=O)[C@H](CCC(F)(F)F)NC(=O)C(F)(F)F)C[C@@H]21 [Compound 249s] | > 100000 | <1.0 | < 300 | – | –
CC(C)(F)[C@H](NC(=O)C(F)(F)F)C(=O)N1C[C@H]2[C@@H]([C@H]1C(=O)N[C@@H](C[C@@H]1CCNC1=O)C(=O)c1nc3c(F)cccc3s1)C2(C)C [Compound 250] | > 100000 | <1.0 | < 200 | – | –
CC(C)(C)[C@H](NC(=O)C(F)(F)F)C(=O)N1C[C@H]2[C@@H]([C@H]1C(=S)N[C@@H](C[C@@H]1CCNC1=O)C(=O)c1nc3c(F)cccc3s1)C2(C)C [Compound 245s, 2,2,2-trifluoro-N-((S)-1-((1R,2S,5S)-2-(((S)-1-(4-fluorobenzo[d]thiazol-2-yl)-1-oxo-3-((S)-2-oxopyrrolidin-3-yl)propan-2-yl)carbamothioyl)-6,6-dimethyl-3-azabicyclo[3.1 0.0]hexan-3-yl)-3,3-dimethyl-1-oxobutan-2-yl)acetamide] | – | – | – | > 100000 | IC50 [4]: 300 nM; EC50 [2, 6]: 310 nM; times more excellent EC50 value as compared with PF-7321332 [2]: ≥ 6 times
CC(C)(C)[C@H](NC(=O)C(F)(F)F)C(=O)N1C[C@H]2[C@@H]([C@H]1C(=O)N[C@H](C#N)C[C@@H]1CCNC1=O)C2(C)C [PF-7321332, reference compound] | – | – | – | > 100000 | EC50 [2, 6]: 1900 nM; EC75 [2, 7]: 4390 nM; EC99 [2, 7]: 9.68 µM
CC(C)(F)[C@H](NC(=O)C(F)(F)F)C(=O)N1C[C@H]2[C@@H]([C@H]1C(=S)N[C@@H](C[C@@H]1CCNC1=O)C(=O)c1nc3c(F)ccc(F)c3s1)C2(C)C [Compound 251s] | > 100000 | <1.0 | < 300 | – | –
COc1ccc(F)c2[nH]c(C(=O)N3C[C@H]4[C@@H]([C@H]3C(=O)N[C@@H](C[C@@H]3CCNC3=O)C(=O)c3nc5c(F)cccc5s3)C4(C)C)cc12 [Compound 244, (1R,2S,5S)-3-(7-fluoro-4-methoxy-1H-indole-2-carbonyl)-N-((S)-1-(4-fluorobenzo[d]thiazol-2-yl)-1-oxo-3-((S)-2-oxopyrrolidin-3-yl)propan-2-yl)-6,6-dimethyl-3-azabicyclo[3.1.0]hexane-2-carboxamide] | – | – | – | > 100000 | IC50 [4]: 600 nM; EC50 [2, 6]: 600 nM; EC99 [2, 7]: 0.99 µM
CC1(C)[C@@H]2[C@@H](C(=O)N[C@@H](C[C@@H]3CCNC3=O)C(=O)c3nc4c(F)cccc4s3)N(C(=O)[C@H](CC(F)(F)F)NC(=O)C(F)(F)F)C[C@@H]21 [Compound 248] | > 100000 | <1.0 | < 200 | – | –
CC1(C)[C@@H]2[C@@H](C(=O)N[C@@H](C[C@@H]3CCNC3=O)C(=O)c3nc4c(F)cccc4s3)N(C(=O)c3cc4c(F)ccc(F)c4[nH]3)C[C@@H]21 [Compound 243, (1R,2S,5S)-3-(4,7-difluoro-1H-indole-2-carbonyl)-N-((S)-1-(4-fluorobenzo[d]thiazol-2-yl)-1-oxo-3-((S)-2-oxopyrrolidin-3-yl)propan-2-yl)-6,6-dimethyl-3-azabicyclo[3.1.0]hexane-2-carboxamide] | – | – | – | > 100000 | IC50 [4]: 800 nM; EC50 [2, 6]: 750 nM; EC99 [2, 7]: 9.4 µM
CC1(C)[C@@H]2[C@@H](C(=S)N[C@@H](C[C@@H]3CCNC3=O)C(=O)c3nc4c(F)cccc4s3)N(C(=O)[C@H](CC(F)(F)F)NC(=O)C(F)(F)F)C[C@@H]21 [Compound 248s] | > 100000 | <1.0 | < 300 | – | –
CC(C)(F)[C@H](NC(=O)C(F)(F)F)C(=O)N1C[C@H]2[C@@H]([C@H]1C(=S)N[C@@H](C[C@@H]1CCNC1=O)C(=O)c1nc3c(F)cccc3s1)C2(C)C [Compound 250s] | > 100000 | <1.0 | < 300 | – | –
CC1(C)[C@@H]2[C@@H](C(=O)N[C@@H](C[C@@H]3CCNC3=O)C(=O)c3nc4c(F)cccc4s3)N(C(=O)[C@H](CCC(F)(F)F)NC(=O)C(F)(F)F)C[C@@H]21 [Compound 249] | > 100000 | <1.0 | < 200 | – | –
COc1cccc2[nH]c(C(=O)N[C@@H](CC(C)C)C(=O)N[C@@H](C[C@@H]3CCNC3=O)C(=O)c3nc4ccccc4s3)cc12 [Compound 2420, reference compound] | – | – | – | – | half-life [5]: ~10 min; EC50 ([2]; Severe acute respiratory syndrome coronavirus 2, Vero C1008, 72 h): 2700 to 3200 nM
CC(C)(C)[C@H](NC(=O)C(F)(F)F)C(=O)N1C[C@H]2[C@@H]([C@H]1C(=O)N[C@@H](C[C@@H]1CCNC1=O)C(=O)c1nc3c(F)ccc(F)c3s1)C2(C)C [Compound 247] | > 100000 | <1.0 | < 200 | – | –
CC(C)(F)[C@H](NC(=O)C(F)(F)F)C(=O)N1C[C@H]2[C@@H]([C@H]1C(=O)N[C@@H](C[C@@H]1CCNC1=O)C(=O)c1nc3c(F)ccc(F)c3s1)C2(C)C [Compound 251] | > 100000 | <1.0 | < 200 | – | –
CC(C)(C)[C@H](NC(=O)C(F)(F)F)C(=O)N1C[C@H]2[C@@H]([C@H]1C(=S)N[C@@H](C[C@@H]1CCNC1=O)C(=O)c1nc3c(F)ccc(F)c3s1)C2(C)C [Compound 247s] | > 100000 | <1.0 | < 300 | – | –
CC(C)(C)[C@H](NC(=O)C(F)(F)F)C(=O)N1C[C@H]2[C@@H]([C@H]1C(=O)N[C@@H](C[C@@H]1CCNC1=O)C(=O)c1nc3cc(F)ccc3s1)C2(C)C [Compound 272, (1R,2S,5S)-3-((S)-3,3-dimethyl-2-(2,2,2-trifluoroacetamido)butanoyl)-N-((S)-1-(5-fluorobenzo[d]thiazol-2-yl)-1-oxo-3-((S)-2-oxopyrrolidin-3-yl)propan-2-yl)-6,6-dimethyl-3-azabicyclo[3.1.0]hexane-2-carboxamide] | – | – | – | > 80000 | bioavailability [5]: 99.3%; EC50 [2, 8]: 8 nM
CC(C)(C)[C@H](NC(=O)C(F)(F)F)C(=O)N1C[C@H]2[C@@H]([C@H]1C(=O)N[C@@H](C[C@@H]1CCNC1=O)C(=O)c1nc3c(F)cccc3s1)C2(C)C [Compound 245, (1R,2S,5S)-3-((S)-3,3-dimethyl-2-(2,2,2-trifluoroacetamido)butanoyl)-N-((S)-1-(4-fluorobenzo[d]thiazol-2-yl)-1-oxo-3-((S)-2-oxopyrrolidin-3-yl)propan-2-yl)-6,6-dimethyl-3-azabicyclo[3.1.0]hexane-2-carboxamide] | – | 0.95 | – | > 100000 | half-life [5]: ≥ 45 min; bioavailability [5]: ≥ 31%; bioavailability ([5]; same experiment conducted again, mice, 2 mg/kg P.O. vs I.V., calculated from AUC of FIG. 2): 47.7%; EC75 [2]: 290 nM; EC50 [2, 8]: 80 nM; suppression of proliferation of SARS-CoV-2 ([2]; concentration of 1 μM): almost completely suppressed; times more excellent EC50 value as compared with PF-7321332 [2]: ≥ 20 times; times more excellent EC99 value as compared with PF-7321332 [2]: about 10 times
CC(C)(C)[C@H](NC(=O)C(F)(F)F)C(=O)N1C[C@H]2[C@@H](C1C(=S)N[C@@H](C[C@@H]1CCNC1=O)C(=O)c1nc3c(F)cccc3s1)C2(C)C (stereo partly drawn) [Compound 245s, 2,2,2-trifluoro-N-((S)-1-((1R,2S,5S)-2-(((S)-1-(4-fluorobenzo[d]thiazol-2-yl)-1-oxo-3-((S)-2-oxopyrrolidin-3-yl)propan-2-yl)carbamothioyl)-6,6-dimethyl-3-azabicyclo[3.1 0.0]hexan-3-yl)-3,3-dimethyl-1-oxobutan-2-yl)acetamide] | – | – | – | – | EC75 [2, 7]: 550 nM; EC99 [2, 7]: 0.98 µM; times more excellent EC99 value as compared with PF-7321332 [2]: about 10 times
CC(C)(C)[C@H](NC(=O)C(F)(F)F)C(=O)N1C[C@H]2[C@@H]([C@H]1C(=O)N[C@@H](C[C@@H]1CCNC1=O)C(=O)c1nc3ccc(F)cc3s1)C2(C)C [Compound 273, (1R,2S,5S)-3-((S)-3,3-dimethyl-2-(2,2,2-trifluoroacetamido)butanoyl)-N-((S)-1-(6-fluorobenzo[d]thiazol-2-yl)-1-oxo-3-((S)-2-oxopyrrolidin-3-yl)propan-2-yl)-6,6-dimethyl-3-azabicyclo[3.1.0]hexane-2-carboxamide] | – | – | – | > 80000 | EC50 [2, 8]: 52 nM
